Experimental data published in patent US20070128685A1, “Methods and compositions for cell culture” (priority 2005, published 2007).

Assays:
[1] = system: Normal human adult chondrocytes and normal rodent chondrocytes; assay: Culture of chondrocytes in supplemented DMEM serum free media; assay type: cell-based; conditions: DMEM SFM, Collagenase 5 μg/ml; after 4, 6, and 9 passages
Protocol: Currently, there is not any SFM commercially available for chondrocytes. Using the serum-containing media available, the life-span of the chondrocytes in culture is very limited (up to 3 to 4 passages, between 10-15 doublings times). Thus, the present example illustrates the use of collagenase and forskolin to allow the used of SFM with chondrocytes.
Normal human adult chondrocytes and normal rodent chondrocytes were cultured in a SFM. Collagenase (5 μg/ml) was added into the DMEM serum free media (SFM) and tested on said primary and secondary chondrocytes cultures.

[2] = system: Human dermal adult and newborn skin fibroblasts; assay: Proliferation of human dermal fibroblasts in media supplemented with collagenase; assay type: cell-based; conditions: primary and secondary culture
Protocol: Human dermal adult and newborn skin fibroblasts were cultured in a SFM and serum-containing media (DMEM 5% FBS). Collagenase ([…]) was added to the DMEM serum free media (SFM) and tested on primary and secondary culture of human adult and newborn fibroblasts. In both cases (SFM and DMEM 5%) Collagenase increase cell proliferation up to 2-2.5 fold over the controls.

For Collagenase, the growth of chondrocytes [1] was “robust growth”, the “increase of cell proliferation over the controls” value ([2]; DMEM serum free media (SFM), Collagenase 1 μg/nl) was 2-2.5 fold and the “increase of cell proliferation over the controls” value ([2]; serum-containing media (DMEM 5% FBS)) was 2-2.5 fold.
